Earlier results as cited in Sander's compilation of Henry's law constants (doi:10.1007/978-1-4612-3850-8_1).
Values joined by “and” are separate entries in the source; they are usually repeats but may differ in a detail not shown here. Identical values can stand only once.

Assay: Henry solubility constant Hcp at 293 K (mol/(m3 Pa))
Conditions: reference: Suntio et al. (1988); cited value

SMILES | Henry solubility constant Hcp at 293 K
CC1=CC(=O)CC(C)(C)C1 [3,5,5-trimethyl-2-cyclohexen-1-one] | 1.8
CNC(=O)O/N=C/C(C)(C)SC [aldicarb] | 1.9
ClC1=C(Cl)[C@]2(Cl)[C@@H]3[C@@H]4C[C@@H]([C@H]5O[C@@H]45)[C@@H]3[C@@]1(Cl)C2(Cl)Cl [dieldrin] | 50
ClC1(Cl)C2(Cl)C3(Cl)C4(Cl)C(Cl)(Cl)C5(Cl)C3(Cl)C1(Cl)C5(Cl)C24Cl (centres undefined) [mirex] | 0.00099
ClC(Cl)=C(c1ccc(Cl)cc1)c1ccccc1Cl [o,p'-DDE] | 0.14
C=CC=O [propenal] | 0.18
ClC1C(Cl)C(Cl)C(Cl)C(Cl)C1Cl (centres undefined) [γ-1,2,3,4,5,6-hexachlorocyclohexane] | 20

Assay: Henry solubility constant Hcp at 298.15 K (mol/(m3 Pa))
Conditions: reference: Suntio et al. (1988); cited value

SMILES | Henry solubility constant Hcp
Clc1ccc(C(c2ccc(Cl)cc2)C(Cl)(Cl)Cl)cc1 [1,1,1-trichloro-2,2-bis-(4-chlorophenyl)-ethane] | 0.17
ClC(Cl)=C(c1ccc(Cl)cc1)c1ccc(Cl)cc1 [1,1-dichloro-2,2-bis-(4-chlorophenyl)-ethene] | 0.45
ClC1=C(Cl)[C@]2(Cl)C3C(Cl)C(Cl)CC3[C@@]1(Cl)C2(Cl)Cl (some centres undefined) [chlordane] | 0.2 and 0.11
ClC1=C(Cl)[C@]2(Cl)[C@@H]3[C@H]4C[C@H]([C@@H]5O[C@H]45)[C@@H]3[C@@]1(Cl)C2(Cl)Cl [endrin] | 5600
Clc1ccc(C(c2ccccc2Cl)C(Cl)Cl)cc1 (centres undefined) [mitotane] | 560
ClC1C(Cl)C(Cl)C(Cl)C(Cl)C1Cl (stereo not drawn) [α-1,2,3,4,5,6-hexachlorocyclohexane] | 1.8
ClC1C(Cl)C(Cl)C(Cl)C(Cl)C1Cl (stereo not drawn) [β-1,2,3,4,5,6-hexachlorocyclohexane] | 56
